Drawing on BindingDB's records for patent US20240336642 (The General Hospital, 2024), this text covers IC50 for three compounds.

Molecules are shown by their SMILES.

This assay concerns the target T1, Polyunsaturated fatty acid lipoxygenase ALOX12/ALOX15 (Homo sapiens, UniProt P16050+P18054).
T1 sequence (P16050 whole entry): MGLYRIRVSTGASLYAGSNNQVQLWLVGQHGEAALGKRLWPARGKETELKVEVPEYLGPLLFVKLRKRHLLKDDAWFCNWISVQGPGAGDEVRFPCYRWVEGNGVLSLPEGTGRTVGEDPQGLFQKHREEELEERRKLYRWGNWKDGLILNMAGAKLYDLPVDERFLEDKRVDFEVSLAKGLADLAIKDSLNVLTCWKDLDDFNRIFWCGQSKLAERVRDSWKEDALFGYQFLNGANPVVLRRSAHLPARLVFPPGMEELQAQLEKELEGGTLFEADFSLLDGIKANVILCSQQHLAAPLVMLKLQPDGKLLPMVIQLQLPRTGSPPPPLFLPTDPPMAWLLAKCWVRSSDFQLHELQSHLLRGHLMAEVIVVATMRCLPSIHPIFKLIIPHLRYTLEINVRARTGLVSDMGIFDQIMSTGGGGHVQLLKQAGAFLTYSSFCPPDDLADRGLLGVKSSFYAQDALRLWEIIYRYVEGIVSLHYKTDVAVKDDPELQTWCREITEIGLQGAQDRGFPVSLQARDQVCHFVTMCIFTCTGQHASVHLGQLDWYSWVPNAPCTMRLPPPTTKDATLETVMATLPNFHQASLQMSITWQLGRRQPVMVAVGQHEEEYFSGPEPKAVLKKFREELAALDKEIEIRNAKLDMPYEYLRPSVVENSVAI
T1 sequence (P18054 whole entry): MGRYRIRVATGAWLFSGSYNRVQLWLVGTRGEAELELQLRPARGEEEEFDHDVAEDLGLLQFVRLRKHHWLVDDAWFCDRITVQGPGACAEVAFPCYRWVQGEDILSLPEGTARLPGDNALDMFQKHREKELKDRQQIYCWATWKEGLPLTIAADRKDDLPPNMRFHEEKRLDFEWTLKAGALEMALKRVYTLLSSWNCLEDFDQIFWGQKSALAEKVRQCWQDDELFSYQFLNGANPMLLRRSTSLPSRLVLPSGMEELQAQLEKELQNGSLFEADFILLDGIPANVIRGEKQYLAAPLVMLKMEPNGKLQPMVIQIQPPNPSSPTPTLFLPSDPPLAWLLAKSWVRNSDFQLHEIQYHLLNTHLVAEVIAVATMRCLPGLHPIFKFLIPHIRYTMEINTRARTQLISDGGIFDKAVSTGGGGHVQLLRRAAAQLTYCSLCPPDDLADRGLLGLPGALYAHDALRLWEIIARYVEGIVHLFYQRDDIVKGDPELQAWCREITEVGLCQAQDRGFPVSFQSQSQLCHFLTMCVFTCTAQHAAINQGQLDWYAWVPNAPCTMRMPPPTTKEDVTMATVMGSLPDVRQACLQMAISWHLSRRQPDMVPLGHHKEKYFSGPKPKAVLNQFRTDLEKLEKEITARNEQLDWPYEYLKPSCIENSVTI
As to the kind of experiment: Biological Activity of Exemplified Compounds as Inhibitors of 12/15-LOX.

One may read the IC50 as the concentration that inhibits the measured activity by half. Read a low IC50 as greater potency in that assay.

`CNc1oc(-c2cc(Cl)cc(Cl)c2OC(F)F)nc1C#N` [US20240336642, Compound 4] yielded an IC50 of 0.097 µM. Compound `CNc1oc(-c2cc(Cl)cc(OC)c2Cl)nc1C#N` [US20240336642, Compound 9] returned an IC50 of 0.38 µM. As to `N#Cc1nc(-c2cc(Cl)cc(Cl)c2F)oc1NCCCCCO` [US20240336642, Compound 25], the 50% inhibitory concentration (IC50) was above 20 µM.
